From US20250325524A1, “COMPOSITIONS AND METHODS FOR TREATING RENAL INJURY” (CASE WESTERN RESERVE UNIVERSITY, priority 2018, published 2025)

Tests used:
mice with ischemic AKI [1] = assay: renal ischemia-reperfusion injury model: renal function (serum creatinine, NGAL, KIM-1); format: in vivo; settings: IRI-30 min, 3 doses of 5 mg/kg, 24 hours reperfusion
Method: (§1) Mice were anesthetized with isoflurane using a vaporizer and placed on a heating pad to maintain their body temperature at 37° C. Both renal arteries were identified through dorsal incisions and clamped for 20, 30, 35, or 37 minutes. Reperfusion was confirmed visually upon release of the clamps. Surgical wounds were closed, and mice were administered 1 mL of saline i.p. The mice were kept in a warm incubator until they regained consciousness and were allowed to recover with ad libitum access to food and water. […] Serum and kidney tissue were collected 24 hours after renal IRI.
Renal function was assessed by determining the serum levels of creatinine (KB02-H1; Arbor Assays), Lipocalin-2 (NGAL; MLCN20; R&D Systems), and kidney injury molecule-1 (KIM-1; MKM100; R&D Systems) after reperfusion for 24 h.

[2] = stability on incubation with human liver extracts; format: in vitro ADME
[3] = stability on incubation with mouse liver extracts; format: in vitro ADME
[4] = stability on incubation with rat liver extracts; format: in vitro ADME
[5] = test system: PGE2 production by cell lines; assay: PGE2 production by cell lines; format: cell-based
mice = assay: toxicity after IP injection into mice; settings: IP into mice at 50 mg/kg body weight
recombinant 15-PGDH = molecular target: T1, recombinant 15-PGDH (Homo sapiens, UniProt P15428); assay: inhibition of recombinant 15-PGDH; format: biochemical
T1 sequence (P15428 1-266): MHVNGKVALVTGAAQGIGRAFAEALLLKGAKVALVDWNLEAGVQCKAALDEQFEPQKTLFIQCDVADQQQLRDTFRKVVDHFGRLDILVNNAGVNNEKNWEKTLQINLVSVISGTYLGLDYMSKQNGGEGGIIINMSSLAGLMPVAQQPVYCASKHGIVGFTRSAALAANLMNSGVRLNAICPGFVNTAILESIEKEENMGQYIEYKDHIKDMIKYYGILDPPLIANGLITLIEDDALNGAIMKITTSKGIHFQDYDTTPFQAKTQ

[6] = chemical stability in aqueous solutions; format: physicochemical; settings: over broad pH range
mice with ischemic AKI [7] = assay: survival and body weight over 7 days after renal IRI; format: in vivo; settings: bilateral IRI 30 minutes, 5 mg/kg i.p. before and twice daily over 7 days, POD7
Method: (A) Experimental setup for toxicity. Ischemic AKI induced by bilaterally clamping the renal arteries for 30 minutes, followed by reperfusion. […] (n=10 per group). (B, C) Survival curves and body weight over 7 days. Kaplan-Meier analysis of survival stratified by AKI stage. Data are means±SEM. *P<0.05 vs. corresponding BI30_vehicle.

mice with ischemic AKI [8] = assay: renal IRI model: necrotic and apoptotic cell death in the outer medulla; format: in vivo
Method: as §1
To evaluate necrosis, 5-μm-thick paraffin sections were stained with H&E. Tubular injury was scored semi quantitatively according to a scoring system by a pathologist who examined at least 20 separate fields (×400) in the outer medulla, which is the zone most sensitive to ischemic injury. The scoring system was as follows: 0, no damage; 1, patchy isolated unicellular necrosis; 2, tubular necrosis <25%; 3, tubular necrosis 25-50%; and 4, tubular necrosis >50%. At least 20 consecutive high-power fields (magnification, ×400) per section were scored by two operators blind to the details of the experiment. To analyze the frequency of apoptosis, 5-μm-thick paraffin sections were subjected to terminal deoxynucleotidyl transferase-mediated dUTP nick-end labeling (TUNEL) assay (APT110; Millipore) according to the manufacturer's protocol. TUNEL-positive cells were counted in at least five separate fields (×640 magnification) in the outer medulla, and the apoptosis index (%, number of apoptosis cells/total number of cells) was calculated using GENASIS software.

[9] = test system: renal arterioles in the outer medulla; assay: renal vasodilatation in the outer medulla (α-SMA-positive arteriole area); format: in vivo, mice; settings: IRI mice; α-SMA staining
Method: as §1
To quantify vasodilation, the inner arteriole area of the outer medulla was determined using α-SMA-stained sections. After counterstaining with Mayer's hematoxylin, the inner area of α-SMA-positive vessels in the outer medulla (×25) was measured using ImageJ. The results are expressed as average areas of renal arteries outer medulla.

[10] = test system: PGE2 receptors (EP1, EP2, EP3 and EP4) and adenosine receptor (A2A); assay: renal IRI model: PGE2 receptors (EP1-EP4) and adenosine A2A receptor levels; format: in vivo, mice; settings: kidney tissue, IRI mice
Method: as §1
PGE2 receptors (EP1, EP2, EP3 and EP4) and adenosine receptor (A2A) mRNA levels were determined by real-time PCR with SYBR green PCR Master Mix and the primers listed in Table 1. Their protein levels were determined by western blotting assay and immunofluorescence analysis.

[11] = test system: HMGB1 and proinflammatory cytokines; assay: renal IRI model: HMGB1 and cytokine levels; format: in vivo; settings: mice, 3 doses 5 mg/kg
Method: as §1
Inflammatory cytokine mRNA and protein levels were measured by real-time PCR and ELISA, respectively. Kidney tissue and serum were harvested after reperfusion for 24 h. Total RNA was extracted from frozen kidney tissue using TRIzol reagent (15596018; Invitrogen), according to the manufacturer's protocol. RNA was converted to cDNA using oligo-dT primers. IL-17, TNF-α, and […] levels were determined by real-time PCR with SYBR green PCR Master Mix and the primers listed in Table 1. For ELISA, frozen kidney tissues were homogenized in phosphate buffer. Serum IL-17 (M1700; R&D Systems), TNF-α (MTAOOB; R&D Systems), and IL-10β (MLBOOC; R&D Systems) were measured using commercial ELISA kits according to the manufacturer's instructions.

Compound: CCCCC[C@H](O)/C=C/[C@H]1[C@H](O)CC(=O)[C@@H]1CCCCCCC(=O)O [PGE1, reference compound]
- renal protection from IRI (serum NGAL, creatinine, KIM-1) (mice with ischemic AKI [1]): less effective for renal protection

Compound: CCCCC[C@H](O)/C=C/[C@H]1[C@H](O)CC(=O)[C@@H]1C/C=C\CCCC(=O)O [PGE2, reference compound]
- renal protection from IRI (serum NGAL, creatinine, KIM-1) (mice with ischemic AKI [1]): less effective for renal protection

Compound: CCCC[S+]([O-])c1sc2nc(-c3nccs3)cc(-c3cnc(C)n3C)c2c1N (stereo not drawn) [formula (VII)]
- chemical stability when incubated with human liver extracts [2]: chemically stable
- chemical stability when incubated with mouse liver extracts [3]: chemically stable
- chemical stability when incubated with rat liver extracts [4]: chemically stable
- concentration at which PGE2 production by cell lines is increased [5]: 20 nM
- immediate toxicity over 24 hours (mice): no immediate toxicity
- concentration at which recombinant 15-PGDH is inhibited (recombinant 15-PGDH): 3 nM
- chemical stability in aqueous solutions [6]: chemically stable

Compound: COc1ccc2c(c1)c(CC(=O)O)c(C)n2C(=O)c1ccc(Cl)cc1 [indomethacin, reference compound]
- renal protection from IRI (serum NGAL, creatinine, KIM-1) (mice with ischemic AKI [1]): significantly aggravated IRI
- reduced survival vs vehicle control (mice with ischemic AKI [7]): 25%
- tissue congestion in the outer medulla (gross pathology) (mice with ischemic AKI [8]; 3 doses 5 mg/kg i.p., POD1, vs IRI-vehicle): worsened
- renal injury (histopathology, tubular injury) (mice with ischemic AKI [8]; 3 doses 5 mg/kg, POD1): further exacerbated renal injury
- renal arteriole area in the outer medulla [9]: significantly decreased
- EP4 mRNA [10]: reduced
- increase of levels of mRNA for EP1 [10]: 40%
- induction of inflammatory cytokines [11]: increased induction of inflammatory cytokines
- increase of HMGB1 compared to the IRI-vehicle group ([11]; kidney tissue, western blot): 50%
